Measurements from article PMC10949010, “A myo-inositol dehydrogenase involved in aminocyclitol biosynthesis of hygromycin A” (Beilstein Journal of Organic Chemistry, 2024).

What was measured:
[1] = molecular target: T1, Hyg17 (Streptomyces leeuwenhoekii, UniProt A0A0F7VN41); experiment: NADH formation, absorbance at […] nm, initial rates […]-5 min; format: biochemical; details: 100 mM CAPS, 50 mM NaCl, pH 10.5, 25 °C
T1 construct: cloned NdeI/XhoI in pTip-QC1, expressed in Rhodococcus jostii RHA1, Ni-NTA and size exclusion; primers encode N-terminus MTVAVVG and C-terminus SVPVAP before LE (XhoI)

[2] = molecular target: T2, BsIDH (Bacillus subtilis, UniProt P26935); experiment: thin-layer chromatography of ketone product; format: biochemical; details: 10 mM myo-inositol, 10 mM NAD+, 100 mM CAPS, 50 mM NaCl, pH 10.5
T2 construct: gene iolG; codon-optimised synthetic gene in pET28a, expressed in E. coli BL21 star (DE3), Ni-NTA and size exclusion
T2 sequence (P26935 whole entry): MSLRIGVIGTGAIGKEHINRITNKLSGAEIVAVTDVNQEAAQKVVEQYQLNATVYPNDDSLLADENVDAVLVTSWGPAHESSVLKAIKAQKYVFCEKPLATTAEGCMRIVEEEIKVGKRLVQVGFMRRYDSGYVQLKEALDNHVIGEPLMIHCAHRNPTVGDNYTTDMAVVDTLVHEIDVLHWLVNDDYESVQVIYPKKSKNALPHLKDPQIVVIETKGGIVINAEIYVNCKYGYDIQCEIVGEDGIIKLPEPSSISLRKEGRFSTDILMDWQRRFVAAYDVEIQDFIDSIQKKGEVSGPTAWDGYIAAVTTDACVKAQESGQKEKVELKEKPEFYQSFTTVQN

T1 sequence (A0A0F7VN41 whole entry): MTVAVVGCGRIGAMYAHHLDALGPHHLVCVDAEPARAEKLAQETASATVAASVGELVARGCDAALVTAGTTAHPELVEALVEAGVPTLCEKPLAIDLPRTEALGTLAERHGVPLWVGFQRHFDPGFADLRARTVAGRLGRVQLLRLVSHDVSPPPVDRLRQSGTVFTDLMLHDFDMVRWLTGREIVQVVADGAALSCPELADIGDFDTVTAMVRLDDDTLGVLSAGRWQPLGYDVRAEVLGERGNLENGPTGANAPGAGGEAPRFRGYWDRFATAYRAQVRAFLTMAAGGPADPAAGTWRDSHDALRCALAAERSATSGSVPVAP

Compound | Km ([1]; 10 mM myo-inositol) [mM] | thin-layer chromatography of ketone product [2] | Km ([1]; 10 mM NAD+) [mM]
NC(=O)c1ccc[n+]([C@@H]2O[C@H](COP(=O)(O)OP(=O)(O)OC[C@H]3O[C@@H](n4cnc5c(N)ncnc54)[C@H](O)[C@@H]3O)[C@@H](O)[C@H]2O)c1 [NAD^+] | 4.2 ± 0.49 | – | –
O[C@H]1[C@H](O)[C@@H](O)[C@H](O)[C@@H](O)[C@H]1O [myo-inositol] | – | We found that both enzymes generated a ketone product with identical retention factors | 9 ± 1.1
O[C@H]1[C@H](O)[C@@H](O)[C@H](O)[C@@H](O)[C@@H]1O [scyllo-inositol] | – | – | 20.3 ± 3.3
